{"source": "patent US20170143712A1", "about": "“Methods of Treating Cancers, Immune and Autoimmune Diseases, and Inflammatory Diseases Based on BTK Occupancy and BTK Resynthesis Rate” (Acerta Pharma B.V., priority 2014, published 2017)", "key": {"[1]": {"experiment": "Rat pharmacokinetics, oral gavage vs dietary administration in chow", "type": "in vivo", "protocol": "To evaluate the effects of continuous low dose administration versus oral gavage administration of Formula (II), six male rats per group were treated with oral gavage administration of vehicle or Formula (II) at a dose of 30 mg/kg/day for 14 days. Six male rats per group were treated with dietary Formula (II) in chow at concentrations of 100 and 500 ppm; a control group (no vehicle, no chow) was also included in the study. All animals were evaluated for pharmacokinetics on Day 14, during the night cycle to accommodate the dietary groups. The spleens were collected at necroscopy and splenocytes were harvested and cryopreserved for BTK target occupancy analysis. The presence of inactivated BTK in normal splenocytes was measured using a BTK active-site specific probe in an ELISA assay. Plasma concentrations of Formula (II) were measured using liquid chromatography/mass spectroscopy; pharmacokinetic parameters were estimated using WinNonlin (Pharsight, Cetara)."}, "MDA-MB-231 tumor cells": {"test_system": "MDA-MB-231 tumor cells", "experiment": "Osteolytic bone lesions after intratibial MDA-MB-231 tumor inoculation in nude rats", "type": "in vivo, rat", "design": "mean visual lysis score: scale not given here; mean left tibial density: unit not given here", "protocol": "FIG. 40A, FIG. 40B, FIG. 40C, FIG. 40D, FIG. 40E, FIG. 40F, and FIG. 40G illustrate the bone density in hind limbs of nude rats (n=6 per group) implanted with intratibial MDA-MB231 tumor […] and treated for up to 41 days with vehicle control, zoledronate (active control) or varying doses of Formula (II). Oral gavage administration of Formula (II) was scheduled as 3 days of initial QD dosing, followed by 30 days of BID dosing at the following dose levels: 3/3, 30/30, and 180/90 mg/kg/day. An untreated group of rats, without tibial implants (n=3) represents bone density of concurrently obtained normal rat tibial images. Statistical significance was determined by two-way ANOVA-Dunnett: ns=not significant, *=P<0.05, **=P<0.01, ***=P<0.001, versus Group 1.\nRats were inoculated with MDA-MB-231 tumor cells on Day 1, baseline radiographs were taken on Day 2, and treatment with Formula (II) began on Day 8. Radiographs were taken on Days 10, 17, 24, 31, 38, and 41. Anti-osteolytic activities were determined from differences in bone density and visual lysis scores between the drug-treated and vehicle-treated groups on each observation day, and also from changes in bone density and visual lysis scores in tumor-inoculated left tibias at baseline (Day 2) compared to Days 10, 17, 24,31, 38, and 41.\nRadiographs were blinded for both analyses. […] Visual osteolysis was not detected in any rat in the nave group. The 4% increase in mean bone density from baseline to study end presumably reflected normal growth in these rats."}, "[2]": {"test_system": "established type II collagen-induced arthritis (CIA) in DBA/1 mice", "experiment": "Mouse established CIA, dosing from arthritis day 8, QD or BID (Example 11)", "type": "in vivo", "details": "for AUC (All Paws) - Corrected for Initial Score / Change in Body Weight (g) Days 1-19 / Histopathology Summed Score Knees / Histopathology Summed Score Paws / Histopathology Summed Score Six-Joints / Paw Score AUC (All Paws): mean(SE)", "text": "A study was designed to determine the efficacy of a covalently acting BTK inhibitor, Formula (II) in inhibiting acute inflammation, pannus formation, cartilage destruction, and bone resorption associated with established type II collagen-induced arthritis (CIA) in DBA/1 mice. Immunization with heterologous type II collagen (CII) induces arthritis in mice of the DBA/1 strain, which is genetically susceptible to this disease. To develop an experimental model of autoimmunity more adequate for the study of human rheumatoid arthritis (RA), male DBA/1 mice were injected intradermally (ID) with bovine type II collagen to induce arthritis as reported by Trentham et al (Trentham D E, Townes A S, Kang A H Autoimmunity to type II collagen: an experimental model of arthritis. J. Exper. Med. 1977, 146:857-868) and Bendele A (Bendele A, Animal models of rheumatoid arthritis. J. Musculoskelet. Neuronal Interact. 2001, 1(4):377-85).\nFollowing acclimatization, 6-7 week old male DBA/1 mice (n=10/group for arthritis) were immunized at the base of the tail, with 150 μL of Freund's Complete Adjuvant (Difco, Detroit, Mich.) containing 1 mg/mL bovine type II collagen by intradermal injection. Immunizations were performed day 0 and again on day 21. On study days 25-26, on day 8 following onset of arthritis, the mice were randomized into treatment groups. […] Dosing began on arthritis day 8 by oral gavage. Groups were treated with vehicle (0.4% HPMC, 0.2% Tween 80), Formula (II) at 25 mg/kg QD, Formula (II) at 12.5 mg/kg BID, or the reference compound dexamethasone (Dex) at 0.2 mg/kg QD. These animals were fasted overnight on arthritis day 20 (13 days after enrollment) prior to necropsy on arthritis day 21. Clinical scores were given for each of the paws (right front, left front, right rear, left rear) on arthritis days 1-21.\nEfficacy evaluation was based on animal body weights, clinical arthritis scores, arthritis scores expressed as area under the curve (AUC), and histopathology on fore paws, hind paws, and knees. Histopathology results were expressed as 4 paws, knees only, or 6 joints (knees included). Day 19 was used as the endpoint for analysis of body weight change since the male DBA/1 mice were fasted overnight prior to necropsy on day 21.\nNecropsies were conducted on fasted mice and terminal serum, fore paws, hind paws, and knees were collected into 10% neutral buffered formalin (NBF) for microscopy. Spleens were harvested and weighed."}, "[3]": {"details": "180 QD/90 BID mg/kg (Group 5), Day 31"}, "[4]": {"details": "180 QD/90 BID mg/kg (Group 5), Day 41"}}, "data": [{"smiles": "CC#CC(=O)N1CCC[C@H]1c1nc(-c2ccc(C(=O)Nc3ccccn3)cc2)c2c(N)nccn12", "note": "[Formula (II), (S)-4-(8-amino-3-(1-(but-2-ynoyl)pyrrolidin-2-yl)imidazo[1,5-a]pyrazin-1-yl)-N-(pyridin-2-yl)benzamide]", "values": [{"measurement": "Cmax as fraction of the AUC0-18 value", "setting": "[1]; dietary 100 and 500 ppm in chow, Day 14", "value": "1/10"}, {"measurement": "Cmax", "setting": "[1]; rat, plasma, oral gavage 30 mg/kg/day, Day 14, male rats", "value": 506, "unit": "ng/mL"}, {"measurement": "AUC(0-t)", "setting": "[1]; rat, plasma, oral gavage 30 mg/kg/day, Day 14, male rats, read-out: AUC0-12", "value": 864, "unit": "ng·h/mL"}, {"measurement": "left tibial bone density compared to vehicle controls", "setting": "MDA-MB-231 tumor cells; 3 or 30 mg/kg, any observation day excluding Day 24 for 30 mg/kg", "value": "no significant differences"}, {"measurement": "left intratibial densities compared to control Group 1", "setting": "MDA-MB-231 tumor cells; 180 QD/90 BID mg/kg (Group 5)", "value": "significantly greater compared to control Group 1 on Day 31, but not Day 41"}, {"measurement": "mean left tibial density", "setting": "MDA-MB-231 tumor cells; 180 QD/90 BID mg/kg (Group 5), Day 2 baseline", "value": "201.4±0.6"}, {"measurement": "decrease in mean left tibial density", "setting": "MDA-MB-231 tumor cells; 180 QD/90 BID mg/kg (Group 5), Day 2 to Days 31 and 41", "value": "1-2%"}, {"measurement": "mean left tibial density", "setting": "MDA-MB-231 tumor cells; [3]", "value": "199.1±0.6"}, {"measurement": "mean visual lysis score", "setting": "MDA-MB-231 tumor cells; [3]", "value": 1.2}, {"measurement": "mean left tibial density", "setting": "MDA-MB-231 tumor cells; [4]", "value": "197.2±0.6"}, {"measurement": "mean visual lysis score", "setting": "MDA-MB-231 tumor cells; [4]", "value": 1.5}, {"measurement": "rats that never developed visible left tibial lesions", "setting": "MDA-MB-231 tumor cells; 180 QD/90 BID mg/kg (Group 5), n=6", "value": "Two rats"}, {"measurement": "Clinical arthritis score AUC (d8-d21), reduction vs vehicle controls", "setting": "[2]; 12.5 mg/kg BID", "value": 59, "unit": "%"}, {"measurement": "absolute spleen weights, reduction vs vehicle controls", "setting": "[2]; 12.5 mg/kg BID", "value": 64, "unit": "%"}, {"measurement": "knee bone resorption, reduction vs vehicle controls", "setting": "[2]; 12.5 mg/kg BID", "value": 78, "unit": "%"}, {"measurement": "knee inflammation, reduction vs vehicle controls", "setting": "[2]; 12.5 mg/kg BID", "value": 49, "unit": "%"}, {"measurement": "knee pannus formation, reduction vs vehicle controls", "setting": "[2]; 12.5 mg/kg BID", "value": 80, "unit": "%"}, {"measurement": "six joint histopathology, reduction of summed scores", "setting": "[2]; 12.5 mg/kg BID", "value": 53, "unit": "%"}, {"measurement": "summed knee scores, reduction vs vehicle controls", "setting": "[2]; 12.5 mg/kg BID", "value": 45, "unit": "%"}, {"measurement": "arthritis scores measured daily vs vehicle controls", "setting": "[2]; 12.5 mg/kg BID, p<0.05 on days 9-21", "value": "significantly reduced toward normal"}, {"measurement": "AUC (All Paws) - Corrected for Initial Score", "setting": "[2]; 12.5 mg/kg PO BID", "value": "*−23.05(2.58)"}, {"measurement": "Change in Body Weight (g) Days 1-19", "setting": "[2]; 12.5 mg/kg PO BID", "value": "†0.64(0.69) g"}, {"measurement": "Histopathology Summed Score Knees", "setting": "[2]; 12.5 mg/kg PO BID", "value": "*6.73(0.60)"}, {"measurement": "Histopathology Summed Score Paws", "setting": "[2]; 12.5 mg/kg PO BID", "value": "*7.49(1.03)"}, {"measurement": "Histopathology Summed Score Six-Joints", "setting": "[2]; 12.5 mg/kg PO BID", "value": "*7.23(0.77)"}, {"measurement": "Paw Score AUC (All Paws)", "setting": "[2]; 12.5 mg/kg PO BID", "value": "*22.45(2.68)"}, {"measurement": "AUC (All Paws) - Corrected for Initial Score", "setting": "[2]; 25 mg/kg PO QD", "value": "*−24.48(3.85)"}, {"measurement": "Change in Body Weight (g) Days 1-19", "setting": "[2]; 25 mg/kg PO QD", "value": "2.37(0.28) g"}, {"measurement": "Histopathology Summed Score Knees", "setting": "[2]; 25 mg/kg PO QD", "value": "*6.00(0.76)"}, {"measurement": "Histopathology Summed Score Paws", "setting": "[2]; 25 mg/kg PO QD", "value": "*7.11(0.98)"}, {"measurement": "Histopathology Summed Score Six-Joints", "setting": "[2]; 25 mg/kg PO QD", "value": "*6.74(0.80)"}, {"measurement": "Paw Score AUC (All Paws)", "setting": "[2]; 25 mg/kg PO QD", "value": "*23.63(3.37)"}, {"measurement": "Clinical arthritis score AUC (d8-d21), reduction vs vehicle controls", "setting": "[2]; 25 mg/kg QD", "value": 56, "unit": "%"}, {"measurement": "knee bone resorption, reduction vs vehicle controls", "setting": "[2]; 25 mg/kg QD", "value": 82, "unit": "%"}, {"measurement": "knee cartilage damage, reduction vs vehicle controls", "setting": "[2]; 25 mg/kg QD", "value": 28, "unit": "%"}, {"measurement": "knee inflammation, reduction vs vehicle controls", "setting": "[2]; 25 mg/kg QD", "value": 53, "unit": "%"}, {"measurement": "knee pannus formation, reduction vs vehicle controls", "setting": "[2]; 25 mg/kg QD", "value": 82, "unit": "%"}, {"measurement": "six joint histopathology, reduction of summed scores", "setting": "[2]; 25 mg/kg QD", "value": 56, "unit": "%"}, {"measurement": "summed knee scores, reduction vs vehicle controls", "setting": "[2]; 25 mg/kg QD", "value": 51, "unit": "%"}, {"measurement": "tolerability", "setting": "[2]; 25 mg/kg QD or 12.5 mg/kg BID, DBA/1 mice", "value": "well tolerated"}, {"measurement": "arthritis scores measured daily vs vehicle controls", "setting": "[2]; 25 mg/kg QD, p<0.05 on days 11-21", "value": "significantly reduced toward normal"}]}]}
